According to patent US5688818A, “Succinamic acid compound, production method thereof and use thereof” (Senju Pharmaceutical Co., Ltd., priority 1993, dated 1997):

Key:
[1] = tested on: sorbitol content in the tissues (erythrocytes, sciatic nerve, lens); assay: Inhibitory action on sorbitol accumulation in tissues of rats with experimental diabetes; type: in vivo, Sprague-Dawley rats; settings: relative to control group = 100%; for Sorbitol accumulation (%) nerve: sciatic nerve
Method: 2) Inhibitory action on sorbitol accumulation in tissues of rats with experimental diabetes
Test Compounds: Compounds of Example 23 and 29 and EPALRESTAT (described in Japanese Patent Unexamined Publication No. 40478/1982)
Sprague-Dawley rats (male, 6 weeks old, 5-6 per group) were fasted for 18 hours and injected with streptozotocin (SIGMA, 60 mg/kg) via the tail vein under ether anesthesia to prepare rats with diabetes.
The test compounds were orally administered at 4, 8 and 24 hours after the injection of streptozotocin. EPALRESTAT was administered orally in the dose of 30 mg/kg and the compounds of Examples 23 and 29 were administered orally in the dose of 10 mg/kg as a 0. 5% carboxymethylcellulose suspension, respectively. During the administrations, the rats were raised under free access to feed and water and the sorbitol content in the tissues (erythrocytes, sciatic nerve, lens) was determined 3 hours after the final administration, according to the enzyme method of H. Y. Bergmeyer et al. [Methods of Enzymatic Analysis, vol. 3, 1323-1330 (1974)] with the use of SDH (sorbitol dehydrogenase) and NAD (β-nicotinamide adenine dinucleotide). The results are expressed in percent (%) relative to the value of a control group administered with a 0.5% carboxymethylcellutose solution (solvent) instead of the compound, which was taken as 100%.

aldose reductase = biological target: T1, aldose reductase (Sus scrofa, UniProt P80276); assay: Aldose reductase activity-inhibitory action; type: biochemical; settings: pH 6.2, 25° C., 2 minutes, 3 mM dl-glyceraldehyde substrate, 0.1 mM NADPH, swine lens enzyme
T1 construct: swine lenses freeze-stored at -80° C. were homogenized with distilled water; from tissue; host or cells: swine lens (40% ammonium sulfate supernatant, dialyzed)
Method: 1) Aldose reductase activity-inhibitory action
That is, swine lenses freeze-stored at -80° C. were homogenized with distilled water and centrifuged at 10,000 G for 15 minutes. The supernatant was prepared into a 40% ammonium sulfate solution and subjected to centrifugation at 10,000 G for 10 minutes.
The activity of aldose reductase was determined by the above-mentioned method of S. Hayman et al. That is, the above-mentioned enzyme solution (25 μl) and a drug solution (25 μl) dissolved in 1% DMSO at various concentrations were added to a 40 mM phosphate buffer (200 μl, pH 6.2) containing, at final concentrations, 0.4M lithium sulfate, 0. 1 mM NADPH (reduced type nicotinamide adenine dinucleotide phosphate) and 3 mM dl-glyceraldehyde as a substrate.
The test drug number indicates the example number to be mentioned later.

Normal ICR mice = settings: mouse, in vivo
Method: The acute toxicity (safety) of the single dose of the compound of the present invention was confirmed by the following test.
Normal ICR mice (male, 7 weeks old, 5 per group) were fasted for 18 hours and the compound (300 mg/kg) of Example 29 was orally administered as a 0.5% carboxymethylcellulose suspension. To the control group, a 0.5% carboxymethylcellulose solution alone was orally administered and observation was continued for 14 days thereafter, during which period the mice were allowed to take feed and water freely.

[2] = 30 mg/kg orally at 4, 8 and 24 hours after streptozotocin
[3] = 10 mg/kg orally at 4, 8 and 24 hours after streptozotocin, * p < 0.01 Tukey

Structure (SMILES): CC(/C=C1\SC(=S)N(CC(=O)O)C1=O)=C\c1ccccc1 [EPALRESTAT, reference compound]
- Sorbitol accumulation (%) erythrocytes [1, 2]: 66.5%
- Sorbitol accumulation (%) lens [1, 2]: 89.1%
- Sorbitol accumulation (%) nerve [1, 2]: 99.9%
- IC50 (aldose reductase): 21 nM

Structure (SMILES): CN(Cc1nc2c(F)c(F)cc(F)c2s1)C(=O)CCC(=O)O [Example 23, N-(4,5,7-Trifluorobenzothiazol-2-yl)methyl-N-methylsuccinamic acid]
- Sorbitol accumulation (%) erythrocytes [1, 3]: 6.3%
- Sorbitol accumulation (%) lens [1, 3]: 69.5%
- Sorbitol accumulation (%) nerve [1, 3]: 4.2%
- IC50 (aldose reductase): 13 nM

Structure (SMILES): CCCCN(Cc1nc2c(F)c(F)cc(F)c2s1)C(=O)CCC(=O)O [Example 26, N-(4,5,7-Trifluorobenzothiazol-2-yl)methyl-N-butylsuccinamic acid]
- IC50 (aldose reductase): 18 nM

Structure (SMILES): O=C(O)CCC(=O)N(Cc1nc2c(F)c(F)cc(F)c2s1)C1CC1 [Example 29]
- death case among the mice (Normal ICR mice): no death case
- Sorbitol accumulation (%) erythrocytes [1, 3]: 12.2%
- Sorbitol accumulation (%) lens [1, 3]: 45.4%
- Sorbitol accumulation (%) nerve [1, 3]: 1.0%
- IC50 (aldose reductase): 17 nM
